The subject of series [1] is EBOV mucin-domain-deleted glycoprotein pseudotyped VSV. The experiment in a line: microbe, parasite or virus in culture. The format is cell-based, Zaire ebolavirus. The settings on record: Zaire ebolavirus, Vero, read-out: EC50 EBOV.
A further series in a line: in vitro. The settings on record: African green monkey, CC50.
Series [2] relates to BDBV mucin-domain-deleted glycoprotein pseudotyped VSV. The experiment in a line: microbe, parasite or virus in culture. The format is cell-based, Bundibugyo ebolavirus. To be noted: Vesicular stomatitis virus, Vero, read-out: EC50 BDBV.

For `COC(=O)c1ccc(COc2ccccc2CN2CCN(C(=O)CNC(=O)C34CC5CC(CC3C5)C4)CC2)cc1` [Example A5], the EC50 (usually the concentration that produces a half-maximal response) in series [1] worked out at 1400 nM; in series [2], 3900 nM. In addition, the CC50 in the series “in vitro” is above 3000 nM.

For the compound `O=C(CNC(=O)C12CC3CC(C1)CC(c1ccccc1)(C3)C2)NC1CCN(Cc2ccccc2)CC1` [Example A6], the EC50 in series [1] turned out to be 210 nM; in series [2], 250 nM. In “in vitro”, the CC50 turned out to be 16800 nM.

On to `O=C(CNC(=O)C12CC3CC(C1)CC(c1ccccc1)(C3)C2)N[C@@H]1CCN(Cc2ccccc2)C1` [Example A7], for which the EC50 was 480 nM in series [1] and 840 nM in series [2]. Besides, the CC50 in “in vitro” was above 10000 nM.

As for `O=C(CNC(=O)C12CC3CC(C1)CC(c1ccccc1)(C3)C2)N1CC2CC1CN2Cc1ccccc1` (stereo not drawn) [Example A8], the EC50 was found to be 190 nM in series [1] and 220 nM in series [2]. The CC50 in “in vitro” was above 10000 nM.

For `O=C(N1CC2(CN(Cc3ccccc3)C2)C1)C12CC3CC(C1)CC(c1ccccc1)(C3)C2` [Example A9], the EC50 amounted to 230 nM in series [1] and 290 nM in series [2]. The same compound returned a CC50 in the series “in vitro” of 10800 nM.

As to `O=C(N1CC2(CCN(Cc3ccccc3)C2)C1)C12CC3CC(C1)CC(c1ccccc1)(C3)C2` [Example A10], the figures for the EC50 in series [1] and in series [2] were 240 nM and 210 nM, respectively. Further, the CC50 in “in vitro” came out at 6900 nM.

With `O=C(CC12CC3CC(C1)CC(c1ccccc1)(C3)C2)NCC(=O)NC1CCN(Cc2ccccc2)CC1` [Example A12], the 50% effective concentration (EC50) is 360 nM in series [1] and 430 nM in series [2]. This compound also had a CC50 in the series “in vitro” of 2500 nM.

As for `O=C(CC12CC3CC(C1)CC(c1ccccc1)(C3)C2)NCC(=O)N[C@@H]1CCN(Cc2ccccc2)C1` [Example A13], the EC50 in series [1] and in series [2] was 320 nM in each case. In the series “in vitro”, this compound yielded a CC50 of 2300 nM.

Turning to `O=C(CC12CC3CC(C1)CC(c1ccccc1)(C3)C2)NCC(=O)N1CC2CC1CN2Cc1ccccc1` (stereo not drawn) [Example A14], the half-maximal effective concentration (EC50) in series [1] worked out at 200 nM; in series [2] it was 230 nM. The CC50 in “in vitro” is 6200 nM.

As to `O=C(N[C@H]1CCN(Cc2ccccc2)C1)C12CC3CC(C1)CC(c1ccccc1)(C3)C2` [Example A15], the values for the concentration for a half-maximal effect (EC50) in series [1] and in series [2] were 1700 nM and 2600 nM, respectively. Further, the CC50 in the series “in vitro” is above 10000 nM.

Regarding `O=C(CNC(=O)C12CC3CC(C1)CC(c1ccccc1)(C3)C2)N1CCN(Cc2ccccc2)CC1` [Example A16], the EC50 in series [1] amounted to 110 nM; in series [2], 350 nM. This compound showed a CC50 in the series “in vitro” of 12900 nM.

As to `O=C(CC12CC3CC(C1)CC(c1ccccc1)(C3)C2)NCC(=O)N1CCN(Cc2ccccc2)CC1` [Example A17], the results for the EC50 in series [1] and in series [2] were 930 nM and 480 nM, respectively. Moreover, the CC50 in the series “in vitro” was above 10000 nM.

As to `O=C(N[C@@H]1CCN(Cc2ccccc2)C1)C12CC3CC(C1)CC(c1ccccc1)(C3)C2` [Example A19], the figures for the EC50 in series [1] and in series [2] were 290 nM and 440 nM, respectively. The compound further showed a CC50 in “in vitro” of 3900 nM.

Consider `O=C(N1CC2CC1CN2Cc1ccccc1)C12CC3CC(C1)CC(c1ccccc1)(C3)C2` (stereo not drawn) [Example A20], for which the values for the concentration giving a half-maximal response (EC50) in series [1] and in series [2] were 490 nM and 410 nM, respectively. The compound further gave a CC50 in the series “in vitro” of 10600 nM.

`O=C(CC12CC3CC(C1)CC(c1ccccc1)(C3)C2)N[C@@H]1CCN(Cc2ccccc2)C1` [Example A24]: the EC50 in series [1] and in series [2] was 290 nM each time. For the same compound, the CC50 in “in vitro” turned out to be 7200 nM.

Consider `CN1CCN(C(=O)C23CC4CC(C2)CC(c2ccccc2)(C4)C3)CC1` [Example A25], for which the EC50 was 450 nM in series [1] and 190 nM in series [2]. The compound also had a CC50 in the series “in vitro” above 10000 nM.

Turning to `CN1CCC(N(C)C(=O)C23CC4CC(C2)CC(c2ccccc2)(C4)C3)CC1` [Example A27], the values for the concentration giving a half-maximal response (EC50) in series [1] and in series [2] were 280 nM and 140 nM, respectively. In “in vitro”, the CC50 is above 10000 nM.

`O=C(N1CCN(Cc2ccccc2)CC1)C12CC3CC(CC1C3)C2` [Example A28]: the half-maximal effective concentration (EC50) in series [1] and in series [2] was above 10000 nM throughout. The CC50 in the series “in vitro” is above 10000 nM.

The values above are taken from patent publication US12240857B2 (priority 2017, dated 2025).
